Measurements as given in patent US10105552B2, “Formulations of histone deacetylase inhibitor and uses thereof” (Pharmacyclics LLC, priority 2009, dated 2018).

How the values were obtained:
[1] = Phase 1 trial, safety/tolerability and response by oral dosing schedule; type: in vivo
Description: This is a Phase 1 dose-escalation study of the safety, pharmacokinetics, and pharmacodynamics of Compound 1, HCl administered orally in patients with advanced cancer.
In the Phase 1 dose escalation study, up to 7 cohorts will receive Compound 1, HCl orally at doses starting at 30 mg/m^2, approximately 4-6 hours apart, up to 90 mg/m^2, 2 or 3 times a day according to 3 different dosing schedules within 28 day cycle (5 days of dosing followed by 2 days of no dosing; 5 days of dosing followed by 9 days of no dosing; 7 days of dosing followed by 7 days of no dosing) until the maximum tolerated dose is reached.
The doses were given at the same time each day. […] The two doses were given at the same time each day, with the second dose being administered approximately 4 to 6 hours from the first dose.
In the event that a patient experiences a treatment-related decrease in platelets to <25,000 per mm^2, the severity of the thrombocytopenia may be ameliorated by dosing in cycles consisting 5 consecutive days of oral dosing followed by 9 consecutive days without dosing.

tumor cell lines = test: Preclinical activity against tumor cell lines; type: cell-based; conditions: many tumor cell lines
[2] = test system: Neuroblastoma cell lines and patient-derived primary neuroblastoma cultures; test: Neuroblastoma cell viability, calcein AM assay; type: cell-based; conditions: 48 hours treatment
Description: Neuroblastoma cell lines and patient-derived primary neuroblastoma cultures were treated with bortezomib, Compound 1 alone or a combination of both agents for 48 hours. Cells were also treated with HDAC inhibitors vorinostat, sodium butyrate, and valproic acid and viability was assessed by calcein AM assays. mRNA from treated cells was evaluated at 6 and 24 hours using U133+ mRNA expression arrays and Ingenuity analysis. Dichlorofluorescein (DCF) was used to measure reactive oxygen species (ROS). Cell viability assays were repeated in the presence of N-acetylcysteine (NAC). Western blot evaluated caspase-3 and PARP cleavage. Nude mice were injected with 10^7 SMS-KCNR cells subcutaneously and treated with daily doses of 0.5 mg/kg bortezomib, 12.5 mg/kg Compound 1, or a combination of the two agents. Tumors were measured and imaged twice per week.

[3] = test system: lung, colon, prostate, pancreatic and brain tumors; test: Preclinical mouse tumor models; type: in vivo
[4] = test system: primary human tumors from patients with colon, ovarian, lung and many hematological cancers; test: Ex vivo activity in primary human tumors; type: cell-based
[5] = Clinical trial PK of Compound 1 solution, oral and IV dosing; conditions: human, in vivo, humans
Description: In clinical trials involving humans with cancer, Compound 1 in solution form was administered at 2 mg/kg as a single oral dose and as multiple 2-hour IV infusion doses.
Compound 1 appears to be preferentially absorbed in the intestines.

RAD51 = test: Pre-clinical models, DNA repair gene expression

Row | SMILES | therapeutic effect ([1]; immediate release capsule, 2 or 3 consecutive doses each 4 to 6 hours apart on dosing days) | incidence of Grade 4 thrombocytopenia (platelet count <25,000 per mm^2) ([1]; in vivo, po) | pharmacodynamic response ([1]; solid tumor and lymphoma patients, cycles of 7 days oral dosing then 7 days without dosing) | activity against tumor cell lines (tumor cell lines) | IC50 [2] [nM] | efficacy in mouse tumor models [3] | ex vivo activity in primary human tumors [4] | bioavailability ([5]; 2 mg/kg, immediate release capsules or an oral solution) [%] | bioavailability ([5]; from AUC0-∞ oral vs IV, 2 mg/kg solution) [%] | effect on RAD51 (and other DNA repair genes) (RAD51)
1 | CN(C)Cc1c(C(=O)NCCOc2ccc(C(=O)NO)cc2)oc2ccccc12 [Compound 1, N-hydroxy-4-{2-[3-(N,N-dimethylaminomethyl)benzofuran-2-ylcarbonylamino]ethoxy}-benzamide] | achieved | limited incidence | achieved | active | < 200 | efficacious | active | ~27 | ~27 | able to turn off RAD51
2 | CC(C)C[C@H](NC(=O)[C@H](Cc1ccccc1)NC(=O)c1cnccn1)B(O)O [bortezomib, reference compound] | – | – | – | – | < 50 | – | – | – | – | –
